Structures are written as SMILES. Where only a bound is given, the exact number is not on record here.

For the test, the target named is T1, SARM1 (50-724) (Homo sapiens, UniProt Q6SZW1).
T1 construct: Purified SARM1 (50-724) with a final concentration of 2 nM
T1 sequence (Q6SZW1 50-724): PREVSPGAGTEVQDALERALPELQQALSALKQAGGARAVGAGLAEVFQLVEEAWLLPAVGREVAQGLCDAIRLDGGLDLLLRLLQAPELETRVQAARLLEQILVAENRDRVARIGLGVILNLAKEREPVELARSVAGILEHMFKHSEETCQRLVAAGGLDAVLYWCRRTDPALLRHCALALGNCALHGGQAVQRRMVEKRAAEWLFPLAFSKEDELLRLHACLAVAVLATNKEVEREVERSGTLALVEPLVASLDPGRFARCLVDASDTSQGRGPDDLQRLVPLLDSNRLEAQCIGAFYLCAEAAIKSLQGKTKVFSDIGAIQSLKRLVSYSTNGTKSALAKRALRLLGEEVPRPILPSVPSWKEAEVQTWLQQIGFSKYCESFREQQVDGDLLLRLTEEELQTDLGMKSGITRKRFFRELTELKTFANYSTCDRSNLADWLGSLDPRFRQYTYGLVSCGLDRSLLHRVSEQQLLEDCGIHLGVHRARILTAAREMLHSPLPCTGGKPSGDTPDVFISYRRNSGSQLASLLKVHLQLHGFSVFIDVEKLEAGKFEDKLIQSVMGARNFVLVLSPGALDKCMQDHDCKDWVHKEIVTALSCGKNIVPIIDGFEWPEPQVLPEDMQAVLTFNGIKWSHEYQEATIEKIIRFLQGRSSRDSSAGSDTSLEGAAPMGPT
Put plainly: SARM1 (50-724) enzymatic assay (NMN-activated NAD+ hydrolysis, LC-MS/MS readout). The conditions noted are these: purified SARM1 (50-724) 2 nM, 200 μM NMN activator, 100 μM NAD+ substrate, 1 h at room temperature, read-out: IC50 (SARM1 inhibitory activity). In kind it is biochemical. Here is the method: Example II. SARM1 (50-724) Enzymatic Assay
An enzymatic assay was performed in a 384-well plate using Dulbecco's phosphate-buffered saline (PBS) as the reaction buffer. Purified SARM1 (50-724) with a final concentration of 2 nM was pre-incubated with a test compound at 1% DMSO final assay concentration for 15 min at room temperature. The reaction was initiated by adding a mixture of 200 μM nicotinamide mononucleotide (NMN) as activator and 100 μM NAD^+ as substrate. After 1 h of incubation at room temperature, the reaction was terminated with 10 times volume of 70% acetonitrile, then centrifuged at 3800 rpm for 10 min. The samples were analyzed using LC-MS/MS after diluted to a proper concentration by 10 mM ammonium acetate (pH 9.75).
ND means “not determined.”
In general, IC50 refers to the concentration at which inhibition is half-maximal. With `Cc1ccc2[nH]c(C(=O)N(CCN(C)C)C3CCCC3)nc2c1` [Compound 64, N-cyclopentyl-N-(2-(dimethylamino)ethyl)-5-methyl-1H-benzo[d]imidazole-2-carboxamide], the IC50 is at least 1000 nM.
The figure for `Cc1ccc2[nH]c(C(=O)N(CC3COC3)C3CCCC3)nc2c1` [Compound 65, N-cyclopentyl-5-methyl-N-(oxetan-3-ylmethyl)-1H-benzo[d]imidazole-2-carboxamide] is at least 1000 nM; for `Cc1ccc2[nH]c(C(=O)N(C)C3CCCC3)c(CN)c2c1` [Compound 68, 3-(aminomethyl)-N-cyclopentyl-N,5-dimethyl-1H-indole-2-carboxamide] it is at least 1000 nM; for `Cc1ccc2[nH]c(C(=O)N(C)c3cccc(Cl)c3Cl)c(C#N)c2c1` [Compound 69, 3-cyano-N-(2,3-dichlorophenyl)-N,5-dimethyl-1H-indole-2-carboxamide] it is at most 100 nM.
As for `Cc1ccc2[nH]c(C(=O)N(C)C3CCCC3)c(C#N)c2c1` [Compound 70, 3-cyano-N-cyclopentyl-N,5-dimethyl-1H-indole-2-carboxamide], the IC50 lay within 101 to 500 nM.
The figure for `Cc1ccc2[nH]c(C(=O)N(CCO)c3cccc(Cl)c3Cl)c(C#N)c2c1` [Compound 71, 3-cyano-N-(2,3-dichlorophenyl)-N-(2-hydroxyethyl)-5-methyl-1H-indole-2-carboxamide] is at most 100 nM; for `Cc1ccc2[nH]c(C(=O)N(C)C3CCCC3)c(CNc3nc(C(N)=O)cs3)c2c1` [Compound 73, 2-(((2-(cyclopentyl(methyl)carbamoyl)-5-methyl-1H-indol-3-yl)methyl)amino)thiazole-4-carboxamide] it is 101 to 500 nM; for `Cc1ccc2[nH]c(C(=O)N(C)c3cccc(Cl)c3Cl)c(CNc3nc(C(N)=O)c(C(C)C)s3)c2c1` [Compound 74, 2-(((2-((2,3-dichlorophenyl)(methyl)carbamoyl)-5-methyl-1H-indol-3-yl)methyl)amino)-5-isopropylthiazole-4-carboxamide] it is at most 100 nM.
The figure for `Cc1ccc2[nH]c(C(=O)N(C)C3CCCC3)c(COc3nccs3)c2c1` [Compound 75, N-cyclopentyl-N,5-dimethyl-3-((thiazol-2-yloxy)methyl)-1H-indole-2-carboxamide] is 501 to 1000 nM; for `Cc1ccc2[nH]c(C(=O)N(C)C3CCCC3)c(CNc3nccs3)c2c1` [Compound 76, N-cyclopentyl-N,5-dimethyl-3-((thiazol-2-ylamino)methyl)-1H-indole-2-carboxamide] it is 101 to 500 nM; for `Cc1ccc2[nH]c(C(=O)N(C)C3CCCC3)c(CNc3ncc[nH]3)c2c1` [Compound 77, 3-(((1H-imidazol-2-yl)amino)methyl)-N-cyclopentyl-N,5-dimethyl-1H-indole-2-carboxamide] it is at least 1000 nM.
Turning to `Cc1ccc2[nH]c(C(=O)N(C)C3CCCC3)c(CNc3cncs3)c2c1` [Compound 78, N-cyclopentyl-N,5-dimethyl-3-((thiazol-5-ylamino)methyl)-1H-indole-2-carboxamide], the IC50 fell in the range of 101 to 500 nM.
Under `Cc1ccc2[nH]c(C(=O)N(C)c3cccc(Cl)c3Cl)c(CNc3nccs3)c2c1` [Compound 79, N-(2,3-dichlorophenyl)-N,5-dimethyl-3-((thiazol-2-ylamino)methyl)-1H-indole-2-carboxamide] stands at most 100 nM.
As to `Cc1ccc2[nH]c(C(=O)N(C)C3CCCC3)c(CNc3ncco3)c2c1` [Compound 80, N-cyclopentyl-N,5-dimethyl-3-((oxazol-2-ylamino)methyl)-1H-indole-2-carboxamide], the IC50 was at most 100 nM.
Turning to `Cc1ccc2[nH]c(C(=O)N(C)C3CCCC3)c(CNc3cn[nH]c3)c2c1` [Compound 81, 3-(((1H-pyrazol-4-yl)amino)methyl)-N-cyclopentyl-N,5-dimethyl-1H-indole-2-carboxamide], the IC50 is at least 1000 nM.
The figure for `Cc1ccc2[nH]c(C(=O)N(C)C3CCCC3)c(CNc3ccccn3)c2c1` [Compound 82, N-cyclopentyl-N,5-dimethyl-3-((pyridin-2-ylamino)methyl)-1H-indole-2-carboxamide] is 101 to 500 nM; for `Cc1ccc2[nH]c(C(=O)N(C)C3CCCC3)c(CNc3cc(C)[nH]n3)c2c1` [Compound 83, N-cyclopentyl-N,5-dimethyl-3-(((5-methyl-1H-pyrazol-3-yl)amino)methyl)-1H-indole-2-carboxamide] it is 101 to 500 nM; for `Cc1ccc2[nH]c(C(=O)N(C)C3CCNCC3)c(CNc3ccccn3)c2c1` [Compound 84, N,5-dimethyl-N-(piperidin-4-yl)-3-((pyridin-2-ylamino)methyl)-1H-indole-2-carboxamide] it is at least 1000 nM.
In the case of `Cc1ccc2[nH]c(C(=O)N(C)C3CCN(C(=O)OC(C)(C)C)CC3)c(CNc3ccccn3)c2c1` [Compound 85, tert-butyl 4-(N,5-dimethyl-3-((pyridin-2-ylamino)methyl)-1H-indole-2-carboxamido)piperidine-1-carboxylate], the IC50 was at least 1000 nM.
Regarding `Cc1ccc2[nH]c(C(=O)N(C)C3CCN(C)CC3)c(CNc3ccccn3)c2c1` [Compound 86, N,5-dimethyl-N-(1-methylpiperidin-4-yl)-3-((pyridin-2-ylamino)methyl)-1H-indole-2-carboxamide], the IC50 is at least 1000 nM.
The figure for `Cc1ccc2[nH]c(C(=O)N3CCCCC3)c(CNc3ccccn3)c2c1` [Compound 87, (5-methyl-3-((pyridin-2-ylamino)methyl)-1H-indol-2-yl)(piperidin-1-yl)methanone] is at least 1000 nM; for `Cc1ccc2[nH]c(C(=O)N(C)CCC(C)C)c(CNc3ccccn3)c2c1` [Compound 88, N-isopentyl-N,5-dimethyl-3-((pyridin-2-ylamino)methyl)-1H-indole-2-carboxamide] it is at least 1000 nM; for `Cc1ccc2[nH]c(C(=O)NC(C)CC(C)C)c(CNc3ccccn3)c2c1` (stereo not drawn) [Compound 89, 5-methyl-N-(4-methylpentan-2-yl)-3-((pyridin-2-ylamino)methyl)-1H-indole-2-carboxamide] it is 501 to 1000 nM.
For `Cc1ccc2[nH]c(C(=O)N(C)C3CCOCC3)c(CNc3ccccn3)c2c1` [Compound 90, N,5-dimethyl-3-((pyridin-2-ylamino)methyl)-N-(tetrahydro-2H-pyran-4-yl)-1H-indole-2-carboxamide], the IC50 was at least 1000 nM.
Under `Cc1ccc2[nH]c(C(=O)N(C)C3CCCCC3)c(CNc3ccccn3)c2c1` [Compound 91, N-cyclohexyl-N,5-dimethyl-3-((pyridin-2-ylamino)methyl)-1H-indole-2-carboxamide] stands 101 to 500 nM; under `Cc1ccc2[nH]c(C(=O)N(C)C3CCCC3)nc2c1C` [Compound 92, N-cyclopentyl-N,6,7-trimethyl-1H-benzo[d]imidazole-2-carboxamide], 101 to 500 nM; under `CN(C(=O)c1nc2c(C3CC3)cccc2[nH]1)C1CCCC1` [Compound 93, N-cyclopentyl-4-cyclopropyl-N-methyl-1H-benzo[d]imidazole-2-carboxamide], 501 to 1000 nM.
Take `CCc1cccc2[nH]c(C(=O)N(C)C3CCCC3)nc12` [Compound 94, N-cyclopentyl-4-ethyl-N-methyl-1H-benzo[d]imidazole-2-carboxamide]: the IC50 was at least 1000 nM.
As to `CN(C(=O)c1nc2c(C#N)cccc2[nH]1)C1CCCC1` [Compound 95, 4-cyano-N-cyclopentyl-N-methyl-1H-benzo[d]imidazole-2-carboxamide], the IC50 is at least 1000 nM.
`Cc1ccc2[nH]c(C(=O)N(C)C3CCCC3)c(C(N)=O)c2c1` [Compound 96, N2-cyclopentyl-N2,5-dimethyl-1H-indole-2,3-dicarboxamide]: the IC50 is at most 100 nM.
Consider `Cc1ccc2[nH]c(C(=O)N(C)C3CCCC3)nc2c1C#N` [Compound 97, 4-cyano-N-cyclopentyl-N,5-dimethyl-1H-benzo[d]imidazole-2-carboxamide], for which the IC50 lay within 101 to 500 nM.
With `Cc1ccc2[nH]c(C(=O)N(CCO)c3cccc(Cl)c3Cl)nc2c1` [Compound 98, N-(2,3-dichlorophenyl)-N-(2-hydroxyethyl)-5-methyl-1H-benzo[d]imidazole-2-carboxamide], the IC50 is at most 100 nM.
As to `CN(C(=O)c1nc2c(S(C)(=O)=O)cccc2[nH]1)C1CCCC1` [Compound 99, N-cyclopentyl-N-methyl-4-(methylsulfonyl)-1H-benzo[d]imidazole-2-carboxamide], the IC50 is at least 1000 nM.

The values are drawn from patent US20260265195A1, “SARM1 MODULATORS, PREPARATIONS, AND USES THEREOF” (SIRONAX LTD, priority 2022, published 2026).
